Assay results published in patent publication US20240425491A1, “HETEROARYL COMPOUNDS USEFUL IN THE TREATMENT OF COGNITIVE DISORDERS” (University College Cardiff Consultants Limited, priority 2021, published 2024).

Columns and labels:
[1] = target: T1, human recombinant GABAAR containing α5β3γ2 subunits (benzodiazepine site) (Homo sapiens, UniProt P18507+P31644); experiment: In vitro radioligand binding assay (α5-GABAAR Ki); details: inhibition of [3H]Ro15-1788 binding, membranes of L(tk−) cells expressing human α5β3γ2; read-out: α5-GABAAR Ki
T1 construct: expressed in transfected cells; host or cells: mouse L(tk−) cells, dexamethasone-inducible vector pMSGneo
T1 sequence (P31644 32-462): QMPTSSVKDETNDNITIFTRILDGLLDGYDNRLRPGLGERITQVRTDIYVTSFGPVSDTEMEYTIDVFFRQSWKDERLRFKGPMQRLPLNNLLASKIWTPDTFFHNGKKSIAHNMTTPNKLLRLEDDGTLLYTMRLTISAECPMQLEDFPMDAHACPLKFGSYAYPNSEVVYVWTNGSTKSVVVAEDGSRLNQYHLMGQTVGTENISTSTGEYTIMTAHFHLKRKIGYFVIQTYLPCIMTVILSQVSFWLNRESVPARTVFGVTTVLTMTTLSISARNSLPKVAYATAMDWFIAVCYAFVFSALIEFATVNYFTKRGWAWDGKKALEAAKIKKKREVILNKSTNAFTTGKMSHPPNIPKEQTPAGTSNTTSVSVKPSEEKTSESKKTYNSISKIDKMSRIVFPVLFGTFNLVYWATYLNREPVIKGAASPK
T1 sequence (P28472 26-473 partner): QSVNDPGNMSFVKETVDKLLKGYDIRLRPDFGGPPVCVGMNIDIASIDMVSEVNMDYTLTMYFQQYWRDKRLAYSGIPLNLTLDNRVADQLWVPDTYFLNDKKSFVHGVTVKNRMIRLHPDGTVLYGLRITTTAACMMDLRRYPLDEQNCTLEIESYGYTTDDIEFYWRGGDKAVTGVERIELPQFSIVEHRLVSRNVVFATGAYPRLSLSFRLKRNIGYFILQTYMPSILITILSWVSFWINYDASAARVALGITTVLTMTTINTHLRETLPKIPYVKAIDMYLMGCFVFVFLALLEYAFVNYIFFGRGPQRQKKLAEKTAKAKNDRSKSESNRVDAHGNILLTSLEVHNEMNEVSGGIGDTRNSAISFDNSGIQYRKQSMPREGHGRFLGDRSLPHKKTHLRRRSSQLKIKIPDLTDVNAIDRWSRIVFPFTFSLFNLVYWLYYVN
T1 sequence (P18507 40-475): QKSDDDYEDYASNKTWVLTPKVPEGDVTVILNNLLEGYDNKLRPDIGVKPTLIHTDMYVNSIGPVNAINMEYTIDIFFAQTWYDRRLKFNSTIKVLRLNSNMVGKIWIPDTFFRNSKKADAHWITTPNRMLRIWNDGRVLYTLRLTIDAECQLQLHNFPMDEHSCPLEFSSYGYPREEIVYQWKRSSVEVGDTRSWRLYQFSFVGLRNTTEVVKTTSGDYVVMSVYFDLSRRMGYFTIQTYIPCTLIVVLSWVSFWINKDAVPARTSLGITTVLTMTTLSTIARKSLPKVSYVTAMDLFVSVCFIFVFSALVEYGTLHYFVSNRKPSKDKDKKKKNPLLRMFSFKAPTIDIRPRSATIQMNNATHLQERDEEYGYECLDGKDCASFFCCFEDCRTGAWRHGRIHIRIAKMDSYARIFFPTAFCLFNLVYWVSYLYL
Method in brief: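 Membranes from mouse L(tk^−) cells stably expressing human α5β3γ2 GABAAR incubated 1 h at 4° C with 4 nM [^3H]Ro15-1788 and test compound; nonspecific binding with 1 μM TP003. Filter-bound radioactivity counted; Ki from IC50 by Cheng-Prusoff using measured Kd.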

[2] = target: T2, human α5β3γ2 GABAARs in mouse L(tk−) cells (Homo sapiens, UniProt P18507+P31644); experiment: In vitro electrophysiological recording assay (α5-GABAAR relative efficacy), QPatch; format: cell-based; details: GABA EC10-20
T2 construct: expressed in transfected cells; host or cells: mouse L(tk−) cells, dexamethasone-inducible vector pMSGneo
T2 sequence (P31644 32-462): as the sequence (P31644 32-462) above
T2 sequence (P28472 26-473 partner): as the sequence (P28472 26-473 partner) above
T2 sequence (P18507 40-475): as the sequence (P18507 40-475) above
Method in brief: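 Whole-cell QPatch recordings at 20-22° C, −65 mV holding, in dexamethasone-induced (1 μM, 24 h) L(tk−) cells. Compound pre-applied ≥1 min, then co-applied with GABA EC10-20; percentage change in leak-corrected peak current, taken at ≥100× Ki, normalised to DMCM efficacy; 0.1% DMSO final.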

[3] = target: T3, human α5β3γ2L GABAA receptors in HEK293 cells (Homo sapiens, UniProt P18507+P31644); experiment: In vitro electrophysiological recording assay (α5-GABAAR relative efficacy), SyncroPatch; format: cell-based; details: Conc 0.1 μM; GABA EC10-20
T3 construct: expressed in transfected cells
T3 sequence (P31644 32-462): as the sequence (P31644 32-462) above
T3 sequence (P28472 26-473 partner): as the sequence (P28472 26-473 partner) above
T3 sequence (P18507 40-475): as the sequence (P18507 40-475) above
Excerpt: Mouse L(tk^−) cells stably expressing human α1β3γ2, α2β3γ2, α3β3γ2, α5β3γ2 GABAARs generated by transfection of the individual subunits in the dexamethasone-inducible expression vector pMSGneo in mouse L(tk^−) cells (Hadingham et al., 1993, Mol. Pharmacol. 43:970-975 and 1993, Mol. Pharmacol. 44:1211-1218) were used for binding and functional assays. For certain compounds, HEK293 cells stable expressing the human α1β3γ2L, α2β3γ2L, α3β3γ2L and α5β3γ2L GABAA receptors were used to evaluate their functional effects in a SyncroPatch electrophysiology assay.
The efficacy of modulators was evaluated using either the automated patch-clamp platform QPatch16 (Sophion, Copenhagen, Denmark) or the SyncroPatch 384i (Nanion Technologies, Germany). Cells were harvested from flasks by enzymatic dissociation and re-suspended in serum-free medium.
For the Syncropatch recordings, a stacked addition protocol was used, in which GABA was rapidly applied and then washed off from the cell. All experiments were carried out at room temperature (20-22° C.) using a standard whole cell procedure. The currents recorded were acquired at 2 kHz and filtered using a Bessel filter. Whole-cell currents were measured at a holding potential of −80 mV.
For Syncropatch recordings, the extracellular recording solution contained: 140 mM NaCl, 4 mM KCl, 2 mM CaCl2), 1 mM MgCl2, 10 mM HEPES, 5 mM glucose (pH 7.4 and osmolarity of c. 300-310 mOsm/L). The intracellular recording solution contained: 90 mM KCl, 50 mM KF, 1.5 mM MgCl2, 11.1 mM EGTA and 10 mM HEPES (pH 7.2 and osmolarity of c. 300 mOsm/L). 2 mM of NaATP was added to the intracellular solution on the day of testing.
The effects of modulators were evaluated in the presence of a submaximal GABA concentration, giving typically 10-20% activation (GABA EC10-20) of the response elicited by a saturating GABA concentration. For QPatch recordings, to check and ensure baseline current stability before compound addition, five consecutive applications of GABA EC10-20 alone (each application with a 2 s duration, separated by minimum 1 min wash off periods) were performed before compound addition. The test compound was applied using the pipetting system of the QPatch system 1 min at least prior to co-application with GABA EC10-20. For SyncroPatch recordings, GABA EC20 alone was applied three times (1 s long applications, with wash steps in-between) before compound addition. This was followed by a 1-2 min pre-incubation with the test compound and then re-application of GABA EC10-20 in the presence of the compound. Finally, following a further wash step, a saturating concentration of GABA was applied, allowing the accurate evaluation for each cell of the percentage baseline activation elicited by the submaximal GABA applied.
The compounds were first dissolved in DMSO as a 10 mM stock and then further diluted to the testing concentrations so that the final DMSO concentration in the extracellular recording solution was kept constant at 0.1% for the QPatch recordings, or 0.2% for the SyncroPatch recordings.
The % efficacy of modulators was determined from the GABA elicited currents recorded in the presence and absence of the test compound, using the formula:
[((compound peak current−leak)−(GABA peak current−leak))/(GABA peak current−leak)]*100,
where ‘leak’ is the leak baseline current at −65 mV, ‘compound peak current’ is the current elicited by co-application of compound and GABA, and ‘GABA peak current’ is the current elicited by GABA alone during the 5th GABA application. The results were presented as ‘relative efficacy’ for each compound generally at a concentration equal or higher than 100 times their determined Ki. The relative efficacy of a compound was calculated by normalising its efficacy to the efficacy of methyl-6,7-dimethoxy-4-ethyl-beta-carboline-3-carboxylate (DMCM) that was separately determined produced an attenuation of GABA-induced currents of −57±4%, n=5.

Structure (SMILES)	Ki [1]	α5-GABAAR Relative Efficacy (to DMCM), SyncroPatch [3]	α5-GABAAR Relative Efficacy (to DMCM), Qpatch ([2]; Conc 0.3 μM)	α5-GABAAR Relative Efficacy (to DMCM), Qpatch ([2]; Conc 0.1 μM)	α5-GABAAR Relative Efficacy (to DMCM), Qpatch ([2]; Conc 1 μM)
CNCc1ccc(-c2ccc(NC(=O)c3c(-c4ccccc4)noc3C)c(OC)n2)cn1 [Example 190, N-[2-Methoxy-6-[6-(methylaminomethyl)-3-pyridyl]-3-pyridyl]-5-methyl-3-phenyl-isoxazole-4-carboxamide]	1.1 nM	−0.72	–	−0.59	–
COc1nc(-c2cnc(CN)nc2)ccc1NC(=O)c1c(-c2ccc(F)cc2)noc1C.Cl [Example 185, N-[6-[2-(Aminomethyl)pyrimidin-5-yl]-2-methoxy-3-pyridyl]-3-(4-fluorophenyl)-5-methyl-isoxazole-4-carboxamide hydrochloride]	0.5 nM	−1.23	–	−0.79	–
COc1nc(-c2cnc(CN)nc2)ccc1NC(=O)c1c(-c2ccccc2)nnn1C.Cl [Example 180, N-(6-(2-(Aminomethyl)pyrimidin-5-yl)-2-methoxypyridin-3-yl)-1-methyl-4-phenyl-1H-1,2,3-triazole-5-carboxamide hydrochloride]	3.9 nM	−0.48	–	–	−0.63
COc1nc(-c2cnoc2)ccc1NC(=O)c1c(-c2ccc(F)cc2)noc1C [Example 221, 3-(4-fluorophenyl)-N-(6-(isoxazol-4-yl)-2-methoxypyridin-3-yl)-5-methylisoxazole-4-carboxamide]	0.8 nM	−1.15	–	–	–
Cc1onc(-c2ccccc2)c1C(=O)Nc1ccc(-c2ccc(N)nc2)nc1OC(C)C [Example 215, N-[6-(6-Amino-3-pyridyl)-2-isopropoxy-3-pyridyl]-5-methyl-3-phenyl-isoxazole-4-carboxamide]	0.6 nM	−0.65	–	–	–

Further lines, with some results ahead:

Ki [1]	α5-GABAAR Relative Efficacy (to DMCM), SyncroPatch [3]	α5-GABAAR Relative Efficacy (to DMCM), Qpatch ([2]; Conc 0.3 μM)	Structure (SMILES)	α5-GABAAR Relative Efficacy (to DMCM), Qpatch ([2]; Conc 0.1 μM)	α5-GABAAR Relative Efficacy (to DMCM), Qpatch ([2]; Conc 1 μM)
1.7 nM	−0.94	−0.92	COc1nc(-c2cnc(N3CCC(O)CC3)nc2)ccc1NC(=O)c1c(-c2ccccc2)noc1C [Example 85, N-(6-(2-(4-Hydroxypiperidin-1-yl)pyrimidin-5-yl)-2-methoxypyridin-3-yl)-5-methyl-3-phenylisoxazole-4-carboxamide]	–	–
1.7 nM	−1.03	−0.55	Cc1onc(-c2ccccc2)c1C(=O)Nc1ccc(-n2ccnc2)nc1OC(C)C [Example 206, N-(6-(1H-Imidazol-1-yl)-2-isopropoxypyridin-3-yl)-5-methyl-3-phenylisoxazole-4-carboxamide]	–	–
0.6 nM	−0.73	–	COc1nc(-c2ccc(CN3CC4COCC(C4)C3)nc2)ccc1NC(=O)c1c(-c2ccccc2)noc1C [Example 232, N-(6′-((3-oxa-7-azabicyclo[3.3.1]nonan-7-yl)methyl)-6-methoxy-[2,3′-bipyridin]-5-yl)-5-methyl-3-phenylisoxazole-4-carboxamide]	–	–
0.5 nM	−0.78	–	COc1nc(-c2ccc(N)nc2)ccc1NC(=O)c1c(-c2ccc(F)cc2)noc1C [Example 222, N-(6′-amino-6-methoxy-[2,3′-bipyridin]-5-yl)-3-(4-fluorophenyl)-5-methylisoxazole-4-carboxamide]	–	–
1.4 nM	−1.10	–	COc1nc(-c2ccc(CN3CCOCC3)nc2)ccc1NC(=O)c1c(-c2ccccc2)noc1C [Example 230, N-(6-methoxy-6′-(morpholinomethyl)-[2,3′-bipyridin]-5-yl)-5-methyl-3-phenyl-isoxazole-4-carboxamide]	–	–
19.5 nM	−0.51	–	Cc1onc(-c2ccc(F)cc2)c1C(=O)Nc1ccc(-c2cnc(N)nc2)nc1OCCO [Example 218, N-[6-(2-Aminopyrimidin-5-yl)-2-(2-hydroxyethoxy)-3-pyridyl]-3-(4-fluorophenyl)-5-methyl-isoxazole-4-carboxamide]	–	–
